#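 1) Cells in 96-well plates. 2) Compound, 48 h, 5 concentrations. 3) Linear interpolation between surrounding doses. 4) Unreached endpoint = highest concentration. The concentration for 50% growth inhibition is given as GI50. TGI denotes the concentration required for complete inhibition of growth.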
# Tests used:
# Assay in all cases: inhibition of tumour cell growth, NCI panel, 48 h
# SW-620 colon = test system: SW-620 colon
# PC-3 prostate = test system: PC-3 prostate
# T-47D breast = test system: T-47D breast
# NCI-H522 lung = test system: NCI-H522 lung
# MDA-MB-435 = test system: MDA-MB-435
# NCI-H23 lung = test system: NCI-H23 lung
# OVCAR-4 ovarian = test system: OVCAR-4 ovarian
# 786-0 renal = test system: 786-0 renal
# MCF7 breast = test system: MCF7 breast
# UACC-62 melanoma = test system: UACC-62 melanoma
# KM12 colon = test system: KM12 colon
# SNB-19 CNS = test system: SNB-19 CNS
# SF-295 CNS = test system: SF-295 CNS
# MOLT-4 leukemia = test system: MOLT-4 leukemia
# A498 renal = test system: A498 renal
# SF-539 CNS = test system: SF-539 CNS
# RPMI-8226 leukemia = test system: RPMI-8226 leukemia
# HCT-116 colon = test system: HCT-116 colon
# IGROV1 ovarian = test system: IGROV1 ovarian
# U251 CNS = test system: U251 CNS
# OVCAR-3 ovarian = test system: OVCAR-3 ovarian
# MDA-MB-231 breast = test system: MDA-MB-231 breast
# SN12C renal = test system: SN12C renal
# RXF 393 renal = test system: RXF 393 renal
# SK-OV-3 ovarian = test system: SK-OV-3 ovarian
# NCI-H226 lung = test system: NCI-H226 lung
# UACC-257 melanoma = test system: UACC-257 melanoma
# SK-MEL-28 melanoma = test system: SK-MEL-28 melanoma
# K-562 leukemia = test system: K-562 leukemia
# OVCAR-5 ovarian = test system: OVCAR-5 ovarian
# NCI/ADR-RES ovarian = test system: NCI/ADR-RES ovarian
# SR leukemia = test system: SR leukemia
# HT29 colon = test system: HT29 colon
# DU-145 prostate = test system: DU-145 prostate
# M14 melanoma = test system: M14 melanoma
# LOX IMVI melanoma = test system: LOX IMVI melanoma
# SNB-75 CNS = test system: SNB-75 CNS
# SK-MEL-5 melanoma = test system: SK-MEL-5 melanoma
# NCI-H460 lung = test system: NCI-H460 lung
# HCC-2998 colon = test system: HCC-2998 colon
# CCRF-CEM leukemia = test system: CCRF-CEM leukemia
# COLO 205 colon = test system: COLO 205 colon
# TK-10 renal = test system: TK-10 renal
# HCT-15 colon = test system: HCT-15 colon
# SF-268 CNS = test system: SF-268 CNS
# HL-60(TB) leukemia = test system: HL-60(TB) leukemia
# OVCAR-8 ovarian = test system: OVCAR-8 ovarian
# HS 578T breast = test system: HS 578T breast
# HOP-62 NSCLC = test system: HOP-62 NSCLC
# MALME-3M melanoma = test system: MALME-3M melanoma
# ACHN renal = test system: ACHN renal
# BT-549 breast = test system: BT-549 breast
# A549 NSCLC = test system: A549 NSCLC
# EKVX NSCLC = test system: EKVX NSCLC
# HOP-92 NSCLC = test system: HOP-92 NSCLC
# UO-31 renal = test system: UO-31 renal
# SK-MEL-2 melanoma = test system: SK-MEL-2 melanoma
# CAKI-1 renal = test system: CAKI-1 renal
structure (smiles),measurement,setting,value
N=C(N)N=Nc1ccc(NN=C(N)N)c2c1ncc1c2nc2sccn21,GI50,SW-620 colon,23.9 µM
same,TGI,SW-620 colon,67.8 µM
same,GI50,PC-3 prostate,27 µM
same,TGI,PC-3 prostate,99.5 µM
same,GI50,T-47D breast,> 100 µM
same,TGI,T-47D breast,> 100 µM
same,GI50,NCI-H522 lung,22.1 µM
same,TGI,NCI-H522 lung,> 100 µM
same,GI50,MDA-MB-435,19.5 µM
same,TGI,MDA-MB-435,52.1 µM
same,GI50,NCI-H23 lung,32.1 µM
same,TGI,NCI-H23 lung,> 100 µM
same,GI50,OVCAR-4 ovarian,22.6 µM
same,TGI,OVCAR-4 ovarian,74.2 µM
same,GI50,786-0 renal,29.2 µM
same,TGI,786-0 renal,> 100 µM
same,GI50,MCF7 breast,23 µM
same,TGI,MCF7 breast,> 100 µM
same,GI50,UACC-62 melanoma,21.3 µM
same,TGI,UACC-62 melanoma,57.2 µM
same,GI50,KM12 colon,21.9 µM
same,TGI,KM12 colon,> 100 µM
same,GI50,SNB-19 CNS,> 100 µM
same,TGI,SNB-19 CNS,> 100 µM
same,GI50,SF-295 CNS,32 µM
same,TGI,SF-295 CNS,> 100 µM
same,GI50,MOLT-4 leukemia,80.3 µM
same,TGI,MOLT-4 leukemia,> 100 µM
same,GI50,A498 renal,24.2 µM
same,TGI,A498 renal,80 µM
same,GI50,SF-539 CNS,21 µM
same,TGI,SF-539 CNS,94.8 µM
same,GI50,RPMI-8226 leukemia,14 µM
same,TGI,RPMI-8226 leukemia,91.2 µM
same,GI50,HCT-116 colon,25.8 µM
same,TGI,HCT-116 colon,> 100 µM
same,GI50,IGROV1 ovarian,8.7 µM
same,TGI,IGROV1 ovarian,> 100 µM
same,GI50,U251 CNS,23.2 µM
same,TGI,U251 CNS,> 100 µM
same,GI50,OVCAR-3 ovarian,18.8 µM
same,TGI,OVCAR-3 ovarian,> 100 µM
same,GI50,MDA-MB-231 breast,33 µM
same,TGI,MDA-MB-231 breast,66.6 µM
same,GI50,SN12C renal,36.4 µM
same,TGI,SN12C renal,> 100 µM
same,GI50,RXF 393 renal,8.98 µM
same,TGI,RXF 393 renal,34.6 µM
same,GI50,SK-OV-3 ovarian,93.4 µM
same,TGI,SK-OV-3 ovarian,> 100 µM
same,GI50,NCI-H226 lung,32.3 µM
same,TGI,NCI-H226 lung,> 100 µM
same,GI50,UACC-257 melanoma,18.6 µM
same,TGI,UACC-257 melanoma,40.6 µM
same,GI50,SK-MEL-28 melanoma,30.6 µM
same,TGI,SK-MEL-28 melanoma,95 µM
same,GI50,K-562 leukemia,31.4 µM
same,TGI,K-562 leukemia,> 100 µM
same,GI50,OVCAR-5 ovarian,27.8 µM
same,TGI,OVCAR-5 ovarian,72.1 µM
same,GI50,NCI/ADR-RES ovarian,28.6 µM
same,TGI,NCI/ADR-RES ovarian,> 100 µM
same,GI50,SR leukemia,> 100 µM
same,TGI,SR leukemia,> 100 µM
same,GI50,HT29 colon,55.6 µM
same,TGI,HT29 colon,> 100 µM
same,GI50,DU-145 prostate,15.3 µM
same,TGI,DU-145 prostate,44.3 µM
same,GI50,M14 melanoma,22.9 µM
same,TGI,M14 melanoma,80 µM
same,GI50,LOX IMVI melanoma,21.1 µM
same,TGI,LOX IMVI melanoma,> 100 µM
same,GI50,SNB-75 CNS,25.9 µM
same,TGI,SNB-75 CNS,> 100 µM
same,GI50,SK-MEL-5 melanoma,15.7 µM
same,TGI,SK-MEL-5 melanoma,37.7 µM
same,GI50,NCI-H460 lung,24 µM
same,TGI,NCI-H460 lung,> 100 µM
same,GI50,HCC-2998 colon,65.7 µM
same,TGI,HCC-2998 colon,> 100 µM
same,GI50,CCRF-CEM leukemia,20.8 µM
same,TGI,CCRF-CEM leukemia,> 100 µM
same,GI50,COLO 205 colon,40.6 µM
same,TGI,COLO 205 colon,> 100 µM
same,GI50,TK-10 renal,18 µM
same,TGI,TK-10 renal,35.5 µM
same,GI50,HCT-15 colon,16.7 µM
same,TGI,HCT-15 colon,59.3 µM
same,GI50,SF-268 CNS,10.7 µM
same,TGI,SF-268 CNS,35.9 µM
same,GI50,HL-60(TB) leukemia,73.6 µM
same,TGI,HL-60(TB) leukemia,> 100 µM
same,GI50,OVCAR-8 ovarian,27.3 µM
same,TGI,OVCAR-8 ovarian,> 100 µM
same,GI50,HS 578T breast,18.9 µM
same,TGI,HS 578T breast,63.4 µM
same,GI50,HOP-62 NSCLC,29.6 µM
same,TGI,HOP-62 NSCLC,> 100 µM
same,GI50,MALME-3M melanoma,21.9 µM
same,TGI,MALME-3M melanoma,45.9 µM
same,GI50,ACHN renal,22.3 µM
same,TGI,ACHN renal,51.3 µM
same,GI50,BT-549 breast,16.5 µM
same,TGI,BT-549 breast,32.9 µM
same,GI50,A549 NSCLC,42.7 µM
same,TGI,A549 NSCLC,> 100 µM
same,GI50,EKVX NSCLC,21.6 µM
same,TGI,EKVX NSCLC,45.8 µM
same,GI50,HOP-92 NSCLC,25.5 µM
same,TGI,HOP-92 NSCLC,65.4 µM
same,GI50,UO-31 renal,23.7 µM
same,TGI,UO-31 renal,> 100 µM
CCN(CC)C(=O)C[n+]1c2ccccc2n2cc(N)ccc21,TGI,SW-620 colon,> 100 µM
same,TGI,PC-3 prostate,> 100 µM
same,TGI,T-47D breast,> 100 µM
same,TGI,MDA-MB-435,> 100 µM
same,TGI,NCI-H23 lung,> 100 µM
same,TGI,OVCAR-4 ovarian,> 100 µM
same,TGI,786-0 renal,> 100 µM
same,TGI,MCF7 breast,> 100 µM
same,TGI,UACC-62 melanoma,> 100 µM
same,TGI,KM12 colon,> 100 µM
same,TGI,SNB-19 CNS,> 100 µM
same,TGI,SF-295 CNS,> 100 µM
same,TGI,MOLT-4 leukemia,> 100 µM
same,TGI,SK-MEL-2 melanoma,> 100 µM
same,TGI,A498 renal,> 100 µM
same,TGI,SF-539 CNS,> 100 µM
same,TGI,RPMI-8226 leukemia,> 100 µM
same,TGI,HCT-116 colon,> 100 µM
same,TGI,IGROV1 ovarian,> 100 µM
same,TGI,U251 CNS,> 100 µM
same,TGI,OVCAR-3 ovarian,> 100 µM
same,TGI,MDA-MB-231 breast,> 100 µM
same,TGI,RXF 393 renal,> 100 µM
same,TGI,SK-OV-3 ovarian,> 100 µM
same,TGI,NCI-H226 lung,> 100 µM
same,TGI,UACC-257 melanoma,> 100 µM
same,TGI,SK-MEL-28 melanoma,> 100 µM
same,TGI,K-562 leukemia,> 100 µM
same,TGI,OVCAR-5 ovarian,> 100 µM
same,TGI,NCI/ADR-RES ovarian,> 100 µM
same,TGI,SR leukemia,> 100 µM
same,TGI,HT29 colon,> 100 µM
same,TGI,DU-145 prostate,> 100 µM
same,TGI,M14 melanoma,> 100 µM
same,TGI,LOX IMVI melanoma,> 100 µM
same,TGI,SNB-75 CNS,> 100 µM
same,TGI,SK-MEL-5 melanoma,> 100 µM
same,TGI,NCI-H460 lung,> 100 µM
same,TGI,HCC-2998 colon,> 100 µM
same,TGI,CCRF-CEM leukemia,> 100 µM
same,TGI,CAKI-1 renal,> 100 µM
same,TGI,COLO 205 colon,> 100 µM
same,TGI,TK-10 renal,> 100 µM
same,TGI,HCT-15 colon,> 100 µM
same,TGI,SF-268 CNS,> 100 µM
same,TGI,HL-60(TB) leukemia,> 100 µM
same,TGI,OVCAR-8 ovarian,> 100 µM
same,TGI,HS 578T breast,> 100 µM
same,TGI,HOP-62 NSCLC,> 100 µM
same,TGI,MALME-3M melanoma,> 100 µM
same,TGI,ACHN renal,> 100 µM
same,TGI,BT-549 breast,> 100 µM
same,TGI,A549 NSCLC,> 100 µM
same,TGI,EKVX NSCLC,> 100 µM
same,TGI,HOP-92 NSCLC,> 100 µM
same,TGI,UO-31 renal,> 100 µM

# Source: PubChem BioAssay (NCI)
